# What was measured:
# Format in all cases: cell-based
# [1] = test system: pseudotype VSV (expressing GFP) having the surface glycoprotein of Ebola virus (zaire sp.); assay: organism not typed; details: for IC50: Vero C1008; for activity at 0.02 µM / activity at 0.078 µM / activity at 0.312 µM / activity at 0.625 µM / activity at 1.25 µM / activity at 2.5 µM / activity at 5 µM / activity at 0.005 µM: Vesicular stomatitis virus, Vero C1008, 18 h, read-out: Viral Infection rate (%); for activity at 0.02 µM: Compound Conc. 0.020 μM; for activity at 0.078 µM: Compound Conc. 0.078 μM; for activity at 0.312 µM: Compound Conc. 0.312 μM; for activity at 0.625 µM: Compound Conc. 0.625 μM; for activity at 1.25 µM: Compound Conc. 1.25 μM; for activity at 2.5 µM: Compound Conc. 2.5 μM; for activity at 5 µM: Compound Conc. 5 μM; for activity at 0.005 µM: Compound Conc. 0.005 μM
# [2] = test system: sudan Ebola virus (pseudotype VSV); assay: microbe, parasite or virus in culture; details: Sudan ebolavirus, read-out: C values
# [3] = test system: bundibugyo Ebola virus (pseudotype VSV); assay: microbe, parasite or virus in culture; details: read-out: C values
# [4] = test system: tai forest Ebola virus (pseudotype VSV); assay: microbe, parasite or virus in culture; details: read-out: C values
# [5] = test system: reston Ebola virus (pseudotype VSV); assay: microbe, parasite or virus in culture; details: Reston ebolavirus, read-out: C values
# [6] = test system: Marburgvirus (Angola strain) (pseudotype VSV); assay: microbe, parasite or virus in culture; details: Orthomarburgvirus, read-out: C values
smiles,measurement,setting,value
"CCN(CC)CCCN(c1ccc(OC)cc1-c1ccccc1)S(=O)(=O)c1ccccc1 [4-17, N-[3-(diethylamino)propyl]-N-(4-methoxy-2-phenyl-phenyl)benzensulfonamide]",IC50,[1],~0.05 µM
same,activity at 0.02 µM,[1],72.6%
same,activity at 0.078 µM,[1],34.6%
same,activity at 0.312 µM,[1],1.91%
same,activity at 0.625 µM,[1],2.05%
same,activity at 1.25 µM,[1],0.2%
same,activity at 2.5 µM,[1],0.81%
same,activity at 5 µM,[1],0.22%
same,IC50,[2],~0.3 µM
same,IC50,[3],~0.05 µM
same,IC50,[4],0.5 to 1 µM
same,IC50,[5],~1 µM
same,IC50,[6],1 to 5 µM
COc1ccc(N(CC2CCN(C)CC2)S(=O)(=O)c2ccccc2)c(-c2ccccc2)c1 [4-20],IC50,[1],~0.05 µM
same,activity at 0.005 µM,[1],91.8%
same,activity at 0.02 µM,[1],78.8%
same,activity at 0.078 µM,[1],43.7%
same,activity at 0.312 µM,[1],4.58%
same,activity at 0.625 µM,[1],2.58%
same,activity at 1.25 µM,[1],0.23%
same,activity at 2.5 µM,[1],0.09%
same,activity at 5 µM,[1],0.17%
same,IC50,[2],~0.3 µM
same,IC50,[3],~0.05 µM
same,IC50,[4],0.5 to 1 µM
same,IC50,[5],~1 µM
same,IC50,[6],1 to 5 µM
CCN1CCC(CN(c2ccc(OC)cc2-c2ccccc2)S(=O)(=O)c2ccccc2)CC1 [4-21],IC50,[1],~0.05 µM
same,activity at 0.02 µM,[1],64.6%
same,activity at 0.078 µM,[1],28.5%
same,activity at 0.312 µM,[1],0.75%
same,activity at 0.625 µM,[1],0.22%
same,activity at 1.25 µM,[1],0.18%
same,activity at 2.5 µM,[1],0.12%
same,activity at 5 µM,[1],0.17%
same,IC50,[2],~0.3 µM
same,IC50,[3],~0.05 µM
same,IC50,[4],0.5 to 1 µM
same,IC50,[5],~1 µM
same,IC50,[6],1 to 5 µM
"COc1ccc(N(CCCN(C)C)S(=O)(=O)c2ccccc2)c(-c2ccccc2)c1 [4-27, N-[3-(dimethylamimo)propyl]-N-(4-methoxy-2-phenyl-phenyl)benzensulfonamide]",IC50,[1],~0.05 µM
same,activity at 0.02 µM,[1],81.5%
same,activity at 0.078 µM,[1],45%
same,activity at 0.312 µM,[1],3.49%
same,activity at 0.625 µM,[1],0.4%
same,activity at 1.25 µM,[1],0.18%
same,activity at 2.5 µM,[1],0.14%
same,activity at 5 µM,[1],0.2%
same,IC50,[2],~0.3 µM
same,IC50,[3],~0.05 µM
same,IC50,[4],0.5 to 1 µM
same,IC50,[5],~1 µM
same,IC50,[6],1 to 5 µM
"CCN1CCC(CN(c2ccc(OC)cc2-c2ccccc2F)S(=O)(=O)c2ccccc2)CC1 [4-57, N-[2-(2-fluorophenyl)-4-methoxy-phenyl)-N-(1-ethyl-4-piperidylmethyl)benzensulfonamide]",activity at 0.005 µM,[1],101%
same,activity at 0.078 µM,[1],93.3%
same,activity at 0.312 µM,[1],58.2%
same,activity at 1.25 µM,[1],1%
same,activity at 5 µM,[1],0.83%
"CCN1CCC(CN(c2ccc(OC)cc2-c2ccccc2)S(=O)(=O)c2cccc(F)c2)CC1 [4-63, 3-fluoro-N-(4-methoxy-2-phenyl-phenyl)-N-(1-ethyl-4-piperidylmethyl)benzensulfonamide]",activity at 0.005 µM,[1],96.7%
same,activity at 0.02 µM,[1],96.2%
same,activity at 0.078 µM,[1],78.2%
same,activity at 0.312 µM,[1],34.3%
same,activity at 1.25 µM,[1],0.81%
same,activity at 5 µM,[1],0%
"CCN(CC)CCCN(c1ccc(OC)cc1-c1ccc(F)cc1)S(=O)(=O)c1ccccc1 [4-68, N-[3-(diethylamino)propyl]-N-[2-(4-fluorophenyl)-4-methoxy-phenyl)benzensulfonamide]",activity at 0.005 µM,[1],99.3%
same,activity at 0.312 µM,[1],52.8%
same,activity at 5 µM,[1],0.25%

# Reference: patent US20210107871A1 (priority 2017, published 2021)
